Results: patent publication US5932410A, “Assay for the detection of proteases” (Commonwealth Scientific and Industrial Research …, priority 1994, dated 1999)
Where a SMILES comes first, the peptide text is derived from it. The star is where a group is joined. Cbz = O=C(OCc1ccccc1)*

Tests used:
Format in all cases: biochemical
Chymotrypsin = Chymotrypsin (Bos taurus, UniProt P00766); assay: Esterase assay, chymotrypsin; details: Z-AX-OMe substrate; for Esterase rate, Chymotrypsin: X = P1 residue, rates approximately ± 10%; for % of maximum activity, Chymotrypsin: percentage of the maximum activity
Excerpt: (§1) Advantage was taken of this activity to develop an "esterase" assay which uses a pH indicator to visualise the hydrogen ion release caused by the action of proteases on peptide-ester substrates. A series of twenty compounds of the form, carbobenzoxy alanyl-X-methyl ester (Z-AX-OMe) were synthesised where "X" is one of the naturally occurring amino acids. These substrates were used in a 96 well microtitre plate assay to screen each mutant enzyme for activity and specificity. The reactions were followed visually or quantified using a standard ELISA plate reader. The esterase assay, using trypsin as a test enzyme and Z-Ala-Arg-OMe as substrate, was more sensitive as than traditional trypsin substrates (three times the rate obtained with benzoyl arginine ethyl aster and twenty times the rate of benzoyl arginine p-nitroanilide) (Whittaker et al., Analytical Biochemistry, 220, 238-243, 1994).
(§2) The present inventors produced a panel of substrates carbobenzoxy alanyl-X-methyl eater (Z-AX-OMe) where X is one of the naturally occurring amino acids. The reactivity of these substrates with a number of serine proteases is set out in Table 1 and FIG. 1.
(§3) Rates are A580 change/min./mg protease. Rates are also shown as a […]

Trypsin = assay: Esterase assay, trypsin; details: Z-AX-OMe substrate; for Esterase rate, Trypsin: X = P1 residue, rates approximately ± 10%; for % of maximum activity, Trypsin: percentage of the maximum activity
Excerpt: as §1, §2, §3

Thrombin = Thrombin (Homo sapiens, UniProt P00734); assay: Esterase assay, thrombin; details: Z-AX-OMe substrate; for Esterase rate, Thrombin: X = P1 residue, rates approximately ± 10%; for % of maximum activity, Thrombin: percentage of the maximum activity
Excerpt: as §1, §2, §3

Elastase = Elastase (Sus scrofa, UniProt P00772); assay: Esterase assay, elastase; details: Z-AX-OMe substrate; for Esterase rate, Elastase: X = P1 residue, rates approximately ± 10%; for % activity, Elastase: normalised to alanine
Excerpt: as §1, §2, §3

α-Lytic protease = α-Lytic protease (Lysobacter enzymogenes, UniProt P00778); assay: Esterase assay, α-lytic protease; details: Z-AX-OMe substrate; for Esterase rate, α-Lytic protease: X = P1 residue, rates approximately ± 10%; for % activity, α-Lytic protease: normalised to alanine
Excerpt: as §1, §2, §3

Subtilisin = assay: Esterase assay, subtilisin; details: Z-AX-OMe substrate; for Esterase rate, Subtilisin: X = P1 residue, rates approximately ± 10%; for % of maximum activity, Subtilisin: percentage of the maximum activity
Excerpt: as §1, §2, §3

Proteinase K = Proteinase K (Parengyodontium album, UniProt P06873); assay: Esterase assay, proteinase K; details: Z-AX-OMe substrate; for Esterase rate, Proteinase K: X = P1 residue, rates approximately ± 10%; for % of maximum activity, Proteinase K: percentage of the maximum activity
Excerpt: as §1, §2, §3

Chain of Proteinase K (P06873 106-384): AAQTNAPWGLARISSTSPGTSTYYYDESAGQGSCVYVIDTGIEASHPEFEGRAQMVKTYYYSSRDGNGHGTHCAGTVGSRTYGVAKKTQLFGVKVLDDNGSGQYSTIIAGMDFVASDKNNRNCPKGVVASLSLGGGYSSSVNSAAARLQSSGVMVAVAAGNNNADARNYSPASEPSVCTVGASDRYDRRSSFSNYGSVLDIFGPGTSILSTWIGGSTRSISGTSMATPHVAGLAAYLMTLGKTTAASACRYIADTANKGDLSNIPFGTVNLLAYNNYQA
Chain of α-Lytic protease (P00778 25-397 limits assumed): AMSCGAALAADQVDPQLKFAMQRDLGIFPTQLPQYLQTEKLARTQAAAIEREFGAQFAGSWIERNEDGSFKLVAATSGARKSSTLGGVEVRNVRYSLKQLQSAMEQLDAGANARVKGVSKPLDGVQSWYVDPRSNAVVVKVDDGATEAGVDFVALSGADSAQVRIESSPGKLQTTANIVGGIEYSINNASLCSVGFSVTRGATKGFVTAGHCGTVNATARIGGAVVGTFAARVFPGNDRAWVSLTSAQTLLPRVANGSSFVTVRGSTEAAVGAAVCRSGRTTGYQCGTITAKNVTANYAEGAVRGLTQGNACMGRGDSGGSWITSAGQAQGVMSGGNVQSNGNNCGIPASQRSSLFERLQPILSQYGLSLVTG
Chain of Elastase (P00772 27-266): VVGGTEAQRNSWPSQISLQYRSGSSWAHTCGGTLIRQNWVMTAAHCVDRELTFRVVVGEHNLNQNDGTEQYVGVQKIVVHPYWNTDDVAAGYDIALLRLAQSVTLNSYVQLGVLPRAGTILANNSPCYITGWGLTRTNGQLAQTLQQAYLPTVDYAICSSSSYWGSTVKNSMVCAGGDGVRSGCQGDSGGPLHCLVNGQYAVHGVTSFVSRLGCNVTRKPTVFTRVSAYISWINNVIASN

| Compound | Esterase rate, Chymotrypsin (Chymotrypsin) | % of maximum activity, Chymotrypsin (Chymotrypsin) [%] | Esterase rate, Trypsin (Trypsin) | % of maximum activity, Trypsin (Trypsin) [%] | Esterase rate, Thrombin (Thrombin) | % of maximum activity, Thrombin (Thrombin) [%] | Esterase rate, Elastase (Elastase) | % activity, Elastase (Elastase) [%] | Esterase rate, α-Lytic protease (α-Lytic protease) | % activity, α-Lytic protease (α-Lytic protease) [%] | Esterase rate, Subtilisin (Subtilisin) | % of maximum activity, Subtilisin (Subtilisin) [%] | Esterase rate, Proteinase K (Proteinase K) | % of maximum activity, Proteinase K (Proteinase K) [%] |
| --- | --- | --- | --- | --- | --- | --- | --- | --- | --- | --- | --- | --- | --- | --- |
| COC(=O)[C@H](CCC(N)=O)NC(=O)[C@H](C)NC(=O)OCc1ccccc1 [Gln] (Cbz-Ala-Gln-OMe) | 0.5 A580 change/min./mg protease | 0.9 | 0 A580 change/min./mg protease | 0 | 0 A580 change/min./mg protease | 0 | 0 A580 change/min./mg protease | 0 | 0 A580 change/min./mg protease | 0 | 1308 A580 change/min./mg protease | 60.9 | 553 A580 change/min./mg protease | 71.4 |
| COC(=O)[C@H](CCC(=O)O)NC(=O)[C@H](C)NC(=O)OCc1ccccc1 [Glu] (Cbz-Ala-Glu-OMe) | 0 A580 change/min./mg protease | 0 | 0 A580 change/min./mg protease | 0 | 0 A580 change/min./mg protease | 0 | 0 A580 change/min./mg protease | 0 | 0 A580 change/min./mg protease | 0 | 83 A580 change/min./mg protease | 3.9 | 97 A580 change/min./mg protease | 12.5 |
| COC(=O)CNC(=O)[C@H](C)NC(=O)OCc1ccccc1 [Gly] (Cbz-Ala-Gly-OMe) | 0 A580 change/min./mg protease | 0 | 0 A580 change/min./mg protease | 0 | 0 A580 change/min./mg protease | 0 | 0 A580 change/min./mg protease | 0 | 0 A580 change/min./mg protease | 0 | 22 A580 change/min./mg protease | 1.0 | 58 A580 change/min./mg protease | 7.5 |
| COC(=O)[C@H](Cc1cnc[nH]1)NC(=O)[C@H](C)NC(=O)OCc1ccccc1 [His] (Cbz-Ala-His-OMe) | 1.5 A580 change/min./mg protease | 2.7 | 3.0 A580 change/min./mg protease | 0.8 | trace | – | 0 A580 change/min./mg protease | 0 | 0 A580 change/min./mg protease | 0 | 249 A580 change/min./mg protease | 11.6 | 203 A580 change/min./mg protease | 26.2 |
| CC[C@H](C)[C@H](NC(=O)[C@H](C)NC(=O)OCc1ccccc1)C(=O)OC [Ile] (Cbz-Ala-Ile-OMe) | 0 A580 change/min./mg protease | 0 | 0 A580 change/min./mg protease | 0 | 0 A580 change/min./mg protease | 0 | 1.7 A580 change/min./mg protease | 11.0 | 0 A580 change/min./mg protease | 0 | 16 A580 change/min./mg protease | 0.7 | 5 A580 change/min./mg protease | 0.6 |
| COC(=O)[C@H](CC(C)C)NC(=O)[C@H](C)NC(=O)OCc1ccccc1 [Leu] (Cbz-Ala-Leu-OMe) | 2.4 A580 change/min./mg protease | 4.3 | 0 A580 change/min./mg protease | 0 | 0 A580 change/min./mg protease | 0 | 3.4 A580 change/min./mg protease | 21.7 | 0 A580 change/min./mg protease | 0 | 1329 A580 change/min./mg protease | 61.8 | 240 A580 change/min./mg protease | 31.0 |
| COC(=O)[C@H](CCCCN)NC(=O)[C@H](C)NC(=O)OCc1ccccc1 [Lys] (Cbz-Ala-Lys-OMe) | 1.5 A580 change/min./mg protease | 2.7 | 155.8 A580 change/min./mg protease | 44.0 | 4.3 A580 change/min./mg protease | 49.0 | 0 A580 change/min./mg protease | 0 | 0 A580 change/min./mg protease | 0 | 153 A580 change/min./mg protease | 7.1 | 61 A580 change/min./mg protease | 7.9 |
| COC(=O)[C@H](CCSC)NC(=O)[C@H](C)NC(=O)OCc1ccccc1 [Met] (Cbz-Ala-Met-OMe) | 6.6 A580 change/min./mg protease | 12.0 | 0 A580 change/min./mg protease | 0 | 0 A580 change/min./mg protease | 0 | trace | – | 2.0 A580 change/min./mg protease | 32.3 | 2149 A580 change/min./mg protease | 100 | 525 A580 change/min./mg protease | 67.7 |
| COC(=O)[C@H](Cc1ccccc1)NC(=O)[C@H](C)NC(=O)OCc1ccccc1 [Phe] | 37.8 A580 change/min./mg protease | 68.5 | 2.9 A580 change/min./mg protease | 0.8 | 0 A580 change/min./mg protease | 0 | 0 A580 change/min./mg protease | 0 | 0 A580 change/min./mg protease | 0 | 998 A580 change/min./mg protease | 46.0 | 342 A580 change/min./mg protease | 44.1 |
